Where two headings read alike, the source gives them in different places.
How the values were obtained:
Format in all cases: cell-based
[1] = test system: oral squamous cell carcinoma (SAS); experiment: In vitro anticancer assay (MTT), SAS; conditions: SAS cells, 48 hrs, mean ± spread, read-out: Anti-proliferative evaluation IC50, SAS
Method: (§1) The resultant tetrazolium salt was then dissolved by the addition of dimethyl sulfoxide. Color was measured spectrophotometrically in a microtiter plate reader at 570 nm and used as a relative measure of viable cell number. The number of viable cells after treatment was compared to solvent and untreated control cells and used to determine the percent of control growth as (Abtreated/Abcontrol)×100, where Ab represents the mean absorbance (n=3). […] D. Heo et al. […] (+)-camptothecin (CPT) and doxorubicin hydrochloride (Dox) were used for comparison with the compounds according to this invention.

[2] = test system: human stomach adenocarcinoma (AGS); experiment: In vitro anticancer assay (MTT), AGS; conditions: AGS cells, 48 hrs, mean ± spread, read-out: Anti-proliferative evaluation IC50, AGS
Method: as §1

[3] = test system: esophageal carcinoma (CE81T); experiment: In vitro anticancer assay (MTT), CE81T; conditions: CE81T cells, 48 hrs, mean ± spread, read-out: Anti-proliferative evaluation IC50, CE81T
Method: as §1

[4] = test system: human cervical epithelioid carcinoma (HeLa); experiment: In vitro anticancer assay (MTT), HeLa; conditions: HeLa cells, 48 hrs, mean ± spread, read-out: Anti-proliferative evaluation IC50, HeLa
Method: as §1

[5] = test system: hepatocellular carcinoma (SKHep1); experiment: In vitro anticancer assay (MTT), SKHep1; conditions: 48 hrs, mean ± spread, read-out: Anti-proliferative evaluation IC50, SKHep1
Method: as §1

[6] = test system: human renal clear cell carcinoma; experiment: In vitro anticancer assay (MTT), RCC 768-O; conditions: RCC 768-O cells, 48 hrs, mean ± spread, read-out: Anti-proliferative evaluation IC50, RCC 768-O
Method: as §1

[7] = Homo sapiens, SK-HEP1, SKHep1 cells

IC50 [1] | IC50 [2] | IC50 [3] | IC50 [4] | IC50 ([5]; SKHep1 cells) | IC50 [6] | IC50 ([2]; Homo sapiens) | IC50 ([4]; Homo sapiens) | IC50 [5, 7] | IC50 ([6]; Homo sapiens) | Structure (SMILES)
10.3 ± 0.5 µM | 5.2 ± 0.5 µM | 7.2 ± 3.1 µM | 10.6 ± 4.4 µM | 9.3 ± 2.9 µM | 8.3 ± 1.3 µM |  |  |  |  | CON=C1c2cc(OC)ccc2-c2c(N3CCNCC3)nc3ccccc3c21 [Compound 6q]
> 30 µM | 16 ± 0.9 µM | > 30 µM | 10.6 ± 1.2 µM | 11.2 ± 0.9 µM | 15 ± 3.5 µM |  |  |  |  | COc1ccc2c(c1)C(=O)c1c-2c(N2CCN(C(=O)CCNCCNCCO)CC2)nc2ccccc12 [Compound 5eee]
> 30 µM | 12 ± 1.3 µM | > 30 µM | 14.3 ± 4.4 µM | 15 ± 5.9 µM | > 30 µM |  |  |  |  | COc1ccc2c(c1)C(=O)c1c-2c(N2CCN(C(=O)CCN3CCOCC3)CC2)nc2ccccc12 [Compound 5hhh]
7.3 ± 0.6 µM |  | > 30 µM |  |  |  | 7.9 ± 1.7 µM | 1 ± 0.3 µM | 4.3 ± 1.5 µM | 8.3 ± 0.6 µM | O=C1c2ccccc2-c2c(NCCNCCO)nc3ccccc3c21 [Compound 5c, 6-[2-(2-Hydroxyethylamino)ethylamino]-11H-indeno[1,2-c]quinolin-11-one]
6.9 ± 0.5 µM |  | 0.9 ± 0.6 µM |  |  |  | 6.5 ± 0.9 µM | > 30 µM | 16.5 ± 5.1 µM | 4.7 ± 3 µM | COc1ccc2c(c1)C(=O)c1c-2c(N2CCNCC2)nc2ccc(F)cc12 [Compound 5ee, 2-Fluoro-9-methoxy-6-(piperazin-1-yl)-11H-indeno[1,2-c]quinolin-11-one]
8.4 ± 2.6 µM | 7.4 ± 0.6 µM | 1.4 ± 0.7 µM | 1.1 ± 0.3 µM | 2.6 ± 0.9 µM | 5.3 ± 1 µM |  |  |  |  | COc1ccc2c(c1)C(=O)c1c-2c(N2CCC(N)CC2)nc2ccccc12 [Compound 5w]
8.9 ± 0.1 µM | 7.3 ± 0.1 µM | 8.4 ± 2 µM | 5.4 ± 2 µM | 6.4 ± 0.6 µM | 5.6 ± 0.9 µM |  |  |  |  | COc1ccc2c(c1)C(=O)c1c-2c(N2CCN(C(=O)CNCCN3CCNCC3)CC2)nc2ccccc12 [Compound 5vv]
6.9 ± 0.5 µM | 7.9 ± 3.8 µM | 4.8 ± 4 µM | 2.5 ± 0.7 µM | 2.2 ± 0.8 µM | 6.8 ± 0.1 µM |  |  |  |  | COc1ccc2c(c1)C(=O)c1c-2c(N2CCN(CC(O)CN(C)C)CC2)nc2ccccc12 (stereo not drawn) [Compound 5mmm]
10.2 ± 2.5 µM | 7.1 ± 1.1 µM | 4.9 ± 1.3 µM | 3 ± 1.3 µM | 6.2 ± 0.7 µM | 10.2 ± 6.5 µM |  |  |  |  | COc1ccc2c(c1)C(=O)c1c-2c(N2CCCNCC2)nc2ccccc12 [Compound 5z]
9 ± 2.7 µM | 18.6 ± 6.2 µM | 9 ± 3.6 µM | 1 ± 0.4 µM | 2.5 ± 1.7 µM | 13.9 ± 10.5 µM |  |  |  |  | COc1ccc2c(c1)C(=NOCC(O)CN(C)C)c1c-2c(N2CCN(CC(O)CN(C)C)CC2)nc2ccccc12 (stereo not drawn) [Compound 6z]
8 ± 0.8 µM | 5.4 ± 0.6 µM | > 30 µM | 4.9 ± 1.7 µM | 5.5 ± 0.8 µM | 5.3 ± 0.5 µM |  |  |  |  | COc1ccc2c(c1)C(=O)c1c-2c(N2CCN(C(=O)CCCN(C)C)CC2)nc2ccccc12 [Compound 5jjj]
> 30 µM |  | 0.6 µM |  |  |  | 21.4 ± 10.1 µM | 10.7 ± 1.2 µM | > 30 µM | 19.1 ± 3.1 µM | COc1ccc2c(c1)C(=O)c1c-2c(N2CCN(CC3CO3)CC2)nc2ccccc12 (stereo not drawn) [Compound 5kkk, 9-methoxy-6-[4-(oxiran-2-ylmethyl)piperazin-1-yl]-11H-indeno[1,2-c]quinolin-11-one]
6.9 ± 0.5 µM | 9.8 ± 4 µM | > 30 µM | 4 ± 0.9 µM | 4.6 ± 1.5 µM | 10 ± 0.8 µM |  |  |  |  | CN(C)CCCNc1nc2ccccc2c2c1-c1ccccc1C2=O [Compound 5b]
> 30 µM | > 30 µM | > 30 µM | > 30 µM | 26.9 ± 19.5 µM | > 30 µM |  |  |  |  | COc1ccc2c(c1)C(=O)c1c-2c(N2CCC(N)C2)nc2ccccc12 (stereo not drawn) [Compound 5v]
7.4 ± 1.1 µM | 3.4 ± 0.4 µM | 7.2 ± 1.8 µM | > 30 µM | 2.2 ± 1.3 µM | 4 ± 1.5 µM |  |  |  |  | COc1ccc2c(c1)C(=O)c1c-2c(N2CCN(C(=O)CN3CCNCC3)CC2)nc2ccccc12 [Compound 5tt]
